From US10815230B2, “Casein kinase 1 delta inhibitor” (ELECTROPHORETICS LIMITED, priority 2015, dated 2020)
One block for each molecule: values may come before it.

Tests used:
Format in all cases: biochemical
CK1a1 = CK1a1 (Homo sapiens, UniProt P48729); assay: Kinase selectivity, % remaining activity; conditions: CK1a1, 10 μM compound, 10 μM ATP, duplicate
Procedure: (§1) Compounds were tested in single dose duplicate mode at a concentration of 10 μM (in DMSO) and reactions were carried out at 10 μM ATP, Table 3 reports the % of remaining activity (relative to DMSO).

ABL2/ARG = ABL2/ARG (Homo sapiens, UniProt P42684); assay: Kinase selectivity, % remaining activity; conditions: 10 μM compound, 10 μM ATP, duplicate
Procedure: (§2) A two-tier strategy to determine the selectivity of compound A was applied: first, the compound was tested at a single concentration (in duplicate) to determine the %-remaining activity of the target kinase. Subsequently, the IC50 of compound A and comparative compounds for casein kinase 1 delta were determined.
as §1

ALK5/TGFBR1 = target: T1, ALK5/TGFBR1 (Homo sapiens, UniProt P36897); assay: Kinase selectivity, % remaining activity; conditions: 10 μM compound, 10 μM ATP, duplicate
T1 sequence (P36897 34-503): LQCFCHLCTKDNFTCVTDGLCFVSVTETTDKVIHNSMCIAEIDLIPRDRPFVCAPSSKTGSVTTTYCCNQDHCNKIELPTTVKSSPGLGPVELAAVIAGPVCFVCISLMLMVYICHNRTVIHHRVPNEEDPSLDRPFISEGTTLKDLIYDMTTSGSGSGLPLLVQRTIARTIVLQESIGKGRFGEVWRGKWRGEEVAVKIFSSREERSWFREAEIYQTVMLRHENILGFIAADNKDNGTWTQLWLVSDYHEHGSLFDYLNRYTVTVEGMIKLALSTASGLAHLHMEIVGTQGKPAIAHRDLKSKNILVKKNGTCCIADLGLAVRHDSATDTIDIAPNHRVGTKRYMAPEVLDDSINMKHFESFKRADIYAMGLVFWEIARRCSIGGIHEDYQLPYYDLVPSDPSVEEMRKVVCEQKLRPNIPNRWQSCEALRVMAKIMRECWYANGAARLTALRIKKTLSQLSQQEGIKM
Procedure: as §2, §1

CDK5/p25 = CDK5/p25 (Homo sapiens, UniProt Q00535); assay: Kinase selectivity, % remaining activity; conditions: 10 μM compound, 10 μM ATP, duplicate
Procedure: as §2, §1

CK1e = CK1e (Homo sapiens, UniProt P49674); assay: Kinase selectivity, % remaining activity; conditions: 10 μM compound, 10 μM ATP, duplicate
Procedure: as §2, §1

CK1g1 = CK1g1 (Homo sapiens, UniProt Q9HCP0); assay: Kinase selectivity, % remaining activity; conditions: 10 μM compound, 10 μM ATP, duplicate
Procedure: as §2, §1

CK1g2 = CK1g2 (Homo sapiens, UniProt P78368); assay: Kinase selectivity, % remaining activity; conditions: 10 μM compound, 10 μM ATP, duplicate
Procedure: as §2, §1

CK1g3 = CK1g3 (Homo sapiens, UniProt Q9Y6M4); assay: Kinase selectivity, % remaining activity; conditions: 10 μM compound, 10 μM ATP, duplicate
Procedure: as §2, §1

CLK2 = CLK2 (Homo sapiens, UniProt P49760); assay: Kinase selectivity, % remaining activity; conditions: 10 μM compound, 10 μM ATP, duplicate
Procedure: as §2, §1

EGFR = EGFR (Homo sapiens, UniProt P00533); assay: Kinase selectivity, % remaining activity; conditions: 10 μM compound, 10 μM ATP, duplicate
Procedure: as §2, §1

EPHA2 = EPHA2 (Homo sapiens, UniProt P29317); assay: Kinase selectivity, % remaining activity; conditions: 10 μM compound, 10 μM ATP, duplicate
Procedure: as §2, §1

FGFR1 = FGFR1 (Homo sapiens, UniProt P11362); assay: Kinase selectivity, % remaining activity; conditions: 10 μM compound, 10 μM ATP, duplicate
Procedure: as §2, §1

GSK3B = GSK3B (Homo sapiens, UniProt P49841); assay: Kinase selectivity, % remaining activity; conditions: 10 μM compound, 10 μM ATP, duplicate
Procedure: as §2, §1

JNK2 = JNK2 (Homo sapiens, UniProt P45984); assay: Kinase selectivity, % remaining activity; conditions: 10 μM compound, 10 μM ATP, duplicate
Procedure: as §2, §1

KDR/VEGFR2 = KDR/VEGFR2 (Homo sapiens, UniProt P35968); assay: Kinase selectivity, % remaining activity; conditions: 10 μM compound, 10 μM ATP, duplicate
Procedure: as §2, §1

LCK = LCK (Homo sapiens, UniProt P06239); assay: Kinase selectivity, % remaining activity; conditions: 10 μM compound, 10 μM ATP, duplicate
Procedure: as §2, §1

MSK1/RPS6KA5 = MSK1/RPS6KA5 (Homo sapiens, UniProt O75582); assay: Kinase selectivity, % remaining activity; conditions: 10 μM compound, 10 μM ATP, duplicate
Procedure: as §2, §1

P38a/MAPK14 = P38a/MAPK14 (Homo sapiens, UniProt Q16539); assay: Kinase selectivity, % remaining activity; conditions: 10 μM compound, 10 μM ATP, duplicate
Procedure: as §2, §1

PDK1/PDPK1 = target: T2, PDK1/PDPK1 (Homo sapiens, UniProt O15530); assay: Kinase selectivity, % remaining activity; conditions: 10 μM compound, 10 μM ATP, duplicate
T2 sequence (O15530 1-556): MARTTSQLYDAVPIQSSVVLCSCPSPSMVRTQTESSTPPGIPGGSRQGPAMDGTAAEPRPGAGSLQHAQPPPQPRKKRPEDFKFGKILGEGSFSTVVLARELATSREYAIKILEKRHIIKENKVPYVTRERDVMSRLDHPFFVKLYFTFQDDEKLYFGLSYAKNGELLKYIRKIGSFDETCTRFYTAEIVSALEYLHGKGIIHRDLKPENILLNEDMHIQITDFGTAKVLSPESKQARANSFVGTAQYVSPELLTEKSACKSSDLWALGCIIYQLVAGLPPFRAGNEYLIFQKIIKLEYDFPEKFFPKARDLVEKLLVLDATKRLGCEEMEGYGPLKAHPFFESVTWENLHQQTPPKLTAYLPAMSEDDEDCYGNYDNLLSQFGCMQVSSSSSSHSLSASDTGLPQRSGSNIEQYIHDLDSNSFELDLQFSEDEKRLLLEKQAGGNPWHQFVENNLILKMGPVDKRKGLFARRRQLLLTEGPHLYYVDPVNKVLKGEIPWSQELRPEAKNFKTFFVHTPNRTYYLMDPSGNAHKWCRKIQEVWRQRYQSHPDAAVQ
Procedure: as §2, §1

PIM3 = PIM3 (Homo sapiens, UniProt Q86V86); assay: Kinase selectivity, % remaining activity; conditions: 10 μM compound, 10 μM ATP, duplicate
Procedure: as §2, §1

PKA = PKA (Homo sapiens, UniProt P17612); assay: Kinase selectivity, % remaining activity; conditions: 10 μM compound, 10 μM ATP, duplicate
Procedure: as §2, §1

PKCb2 = PKCb2 (Homo sapiens, UniProt P05771); assay: Kinase selectivity, % remaining activity; conditions: 10 μM compound, 10 μM ATP, duplicate
Procedure: as §2, §1

RIPK2 = RIPK2 (Homo sapiens, UniProt O43353); assay: Kinase selectivity, % remaining activity; conditions: 10 μM compound, 10 μM ATP, duplicate
Procedure: as §2, §1

ROCK1 = ROCK1 (Homo sapiens, UniProt Q13464); assay: Kinase selectivity, % remaining activity; conditions: 10 μM compound, 10 μM ATP, duplicate
Procedure: as §2, §1

TNIK = TNIK (Homo sapiens, UniProt Q9UKE5); assay: Kinase selectivity, % remaining activity; conditions: 10 μM compound, 10 μM ATP, duplicate
Procedure: as §2, §1

YES/YES1 = YES/YES1 (Homo sapiens, UniProt P07947); assay: Kinase selectivity, % remaining activity; conditions: 10 μM compound, 10 μM ATP, duplicate
Procedure: as §2, §1

[1] = target: CK1d (casein kinase 1 delta) (Homo sapiens, UniProt P48730); assay: Kinase selectivity, % remaining activity and IC50; conditions: 10 μM ATP; for IC50: casein kinase 1 delta, 10-dose, 3 fold serial dilution
Procedure: as §2, §1
Control compound GW5074 (Tocris®) was tested starting at 20 μM. Reactions were carried out at 10 μM ATP.

[2] = read-out: % of remaining activity (relative to DMSO)

Chain of CK1d (casein kinase 1 delta) (P48730 whole entry): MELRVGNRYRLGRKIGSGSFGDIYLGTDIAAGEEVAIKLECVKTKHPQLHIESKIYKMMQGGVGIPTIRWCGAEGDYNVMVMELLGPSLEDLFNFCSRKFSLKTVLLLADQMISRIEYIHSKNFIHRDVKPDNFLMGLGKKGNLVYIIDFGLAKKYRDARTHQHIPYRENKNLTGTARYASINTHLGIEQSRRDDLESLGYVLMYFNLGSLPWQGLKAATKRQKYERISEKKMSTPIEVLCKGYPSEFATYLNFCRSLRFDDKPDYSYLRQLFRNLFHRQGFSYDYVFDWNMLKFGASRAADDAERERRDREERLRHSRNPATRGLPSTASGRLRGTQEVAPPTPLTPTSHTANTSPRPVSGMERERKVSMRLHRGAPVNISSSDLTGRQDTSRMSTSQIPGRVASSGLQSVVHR
Chain of FGFR1 (P11362 22-822): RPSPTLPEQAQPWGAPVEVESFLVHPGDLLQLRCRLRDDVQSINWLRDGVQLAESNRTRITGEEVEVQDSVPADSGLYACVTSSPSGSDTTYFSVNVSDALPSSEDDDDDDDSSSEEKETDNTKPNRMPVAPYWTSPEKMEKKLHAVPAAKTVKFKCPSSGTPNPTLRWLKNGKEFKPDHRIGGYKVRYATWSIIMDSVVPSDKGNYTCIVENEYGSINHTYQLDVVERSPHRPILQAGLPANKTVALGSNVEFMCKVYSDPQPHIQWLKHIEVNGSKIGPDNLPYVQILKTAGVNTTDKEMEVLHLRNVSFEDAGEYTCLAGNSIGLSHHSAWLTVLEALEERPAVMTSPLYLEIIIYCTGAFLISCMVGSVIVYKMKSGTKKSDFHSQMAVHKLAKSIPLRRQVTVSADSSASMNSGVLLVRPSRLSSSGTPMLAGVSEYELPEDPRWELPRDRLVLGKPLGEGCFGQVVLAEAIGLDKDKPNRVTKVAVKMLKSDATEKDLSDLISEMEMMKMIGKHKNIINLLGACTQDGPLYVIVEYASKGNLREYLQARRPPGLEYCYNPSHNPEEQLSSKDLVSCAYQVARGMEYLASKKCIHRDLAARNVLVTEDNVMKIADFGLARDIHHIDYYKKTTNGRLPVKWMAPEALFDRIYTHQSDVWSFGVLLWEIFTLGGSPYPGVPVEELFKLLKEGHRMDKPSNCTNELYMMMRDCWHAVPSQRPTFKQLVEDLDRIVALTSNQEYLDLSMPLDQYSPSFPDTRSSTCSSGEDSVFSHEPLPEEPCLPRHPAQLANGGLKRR
Chain of CLK2 (P49760 whole entry): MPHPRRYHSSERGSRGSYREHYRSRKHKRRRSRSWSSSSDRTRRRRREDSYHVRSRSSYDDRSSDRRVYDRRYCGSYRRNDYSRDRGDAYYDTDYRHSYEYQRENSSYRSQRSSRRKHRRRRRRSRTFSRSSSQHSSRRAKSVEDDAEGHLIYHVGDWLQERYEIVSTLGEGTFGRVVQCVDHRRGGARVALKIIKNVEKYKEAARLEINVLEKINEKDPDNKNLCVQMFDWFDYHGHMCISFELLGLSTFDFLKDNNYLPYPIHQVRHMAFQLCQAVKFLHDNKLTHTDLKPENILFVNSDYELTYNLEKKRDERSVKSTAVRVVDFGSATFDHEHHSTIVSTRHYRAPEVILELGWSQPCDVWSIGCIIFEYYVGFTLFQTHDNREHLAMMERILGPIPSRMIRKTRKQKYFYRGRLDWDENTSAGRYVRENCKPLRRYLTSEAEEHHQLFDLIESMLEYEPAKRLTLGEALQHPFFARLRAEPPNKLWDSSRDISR
Chain of ROCK1 (Q13464 whole entry): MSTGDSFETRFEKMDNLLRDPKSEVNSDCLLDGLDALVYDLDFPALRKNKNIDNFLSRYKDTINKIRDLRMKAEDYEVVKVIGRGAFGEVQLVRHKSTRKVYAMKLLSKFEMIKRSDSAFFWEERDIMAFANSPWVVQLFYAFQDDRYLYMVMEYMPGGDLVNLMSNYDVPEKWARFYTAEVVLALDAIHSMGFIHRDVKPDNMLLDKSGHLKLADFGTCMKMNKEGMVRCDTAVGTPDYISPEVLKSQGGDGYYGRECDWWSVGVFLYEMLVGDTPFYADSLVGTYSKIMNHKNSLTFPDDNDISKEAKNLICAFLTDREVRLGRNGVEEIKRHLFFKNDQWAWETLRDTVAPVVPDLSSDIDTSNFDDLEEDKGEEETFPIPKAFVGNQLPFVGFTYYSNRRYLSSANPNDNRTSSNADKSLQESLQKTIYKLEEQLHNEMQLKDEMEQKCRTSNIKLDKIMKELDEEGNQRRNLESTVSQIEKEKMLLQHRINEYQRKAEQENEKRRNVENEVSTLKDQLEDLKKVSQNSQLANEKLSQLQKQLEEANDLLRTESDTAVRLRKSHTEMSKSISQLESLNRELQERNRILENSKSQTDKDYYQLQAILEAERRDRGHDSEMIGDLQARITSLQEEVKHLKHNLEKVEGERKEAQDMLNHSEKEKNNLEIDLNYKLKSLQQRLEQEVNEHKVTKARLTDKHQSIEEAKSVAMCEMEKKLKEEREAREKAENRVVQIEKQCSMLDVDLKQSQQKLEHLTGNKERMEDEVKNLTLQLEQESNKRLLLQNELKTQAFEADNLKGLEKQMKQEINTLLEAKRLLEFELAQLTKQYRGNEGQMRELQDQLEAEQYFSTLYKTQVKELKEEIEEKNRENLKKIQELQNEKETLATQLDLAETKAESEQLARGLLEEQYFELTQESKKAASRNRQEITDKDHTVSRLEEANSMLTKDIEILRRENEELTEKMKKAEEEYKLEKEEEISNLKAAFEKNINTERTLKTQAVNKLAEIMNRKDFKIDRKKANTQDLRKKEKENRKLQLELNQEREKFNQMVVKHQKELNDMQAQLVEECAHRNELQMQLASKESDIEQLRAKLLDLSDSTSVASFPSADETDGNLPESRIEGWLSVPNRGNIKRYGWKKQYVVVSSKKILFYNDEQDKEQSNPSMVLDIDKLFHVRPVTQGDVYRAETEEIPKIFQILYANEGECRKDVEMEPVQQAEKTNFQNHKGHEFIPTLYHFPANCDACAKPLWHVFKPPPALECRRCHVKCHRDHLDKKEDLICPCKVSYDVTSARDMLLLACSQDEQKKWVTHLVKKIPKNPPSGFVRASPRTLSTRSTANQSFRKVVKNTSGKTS
Chain of JNK2 (P45984 whole entry): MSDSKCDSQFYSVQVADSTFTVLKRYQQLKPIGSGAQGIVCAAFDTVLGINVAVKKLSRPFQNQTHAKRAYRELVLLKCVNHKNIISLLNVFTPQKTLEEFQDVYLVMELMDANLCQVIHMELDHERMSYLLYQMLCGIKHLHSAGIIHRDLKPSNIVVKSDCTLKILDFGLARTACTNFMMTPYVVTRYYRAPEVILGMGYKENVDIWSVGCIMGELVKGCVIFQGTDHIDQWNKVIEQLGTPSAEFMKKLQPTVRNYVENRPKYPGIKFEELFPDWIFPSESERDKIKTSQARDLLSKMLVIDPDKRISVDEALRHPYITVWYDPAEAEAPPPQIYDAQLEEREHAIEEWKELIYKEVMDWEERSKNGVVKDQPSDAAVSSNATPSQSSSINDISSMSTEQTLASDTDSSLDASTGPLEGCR
Chain of TNIK (Q9UKE5 whole entry): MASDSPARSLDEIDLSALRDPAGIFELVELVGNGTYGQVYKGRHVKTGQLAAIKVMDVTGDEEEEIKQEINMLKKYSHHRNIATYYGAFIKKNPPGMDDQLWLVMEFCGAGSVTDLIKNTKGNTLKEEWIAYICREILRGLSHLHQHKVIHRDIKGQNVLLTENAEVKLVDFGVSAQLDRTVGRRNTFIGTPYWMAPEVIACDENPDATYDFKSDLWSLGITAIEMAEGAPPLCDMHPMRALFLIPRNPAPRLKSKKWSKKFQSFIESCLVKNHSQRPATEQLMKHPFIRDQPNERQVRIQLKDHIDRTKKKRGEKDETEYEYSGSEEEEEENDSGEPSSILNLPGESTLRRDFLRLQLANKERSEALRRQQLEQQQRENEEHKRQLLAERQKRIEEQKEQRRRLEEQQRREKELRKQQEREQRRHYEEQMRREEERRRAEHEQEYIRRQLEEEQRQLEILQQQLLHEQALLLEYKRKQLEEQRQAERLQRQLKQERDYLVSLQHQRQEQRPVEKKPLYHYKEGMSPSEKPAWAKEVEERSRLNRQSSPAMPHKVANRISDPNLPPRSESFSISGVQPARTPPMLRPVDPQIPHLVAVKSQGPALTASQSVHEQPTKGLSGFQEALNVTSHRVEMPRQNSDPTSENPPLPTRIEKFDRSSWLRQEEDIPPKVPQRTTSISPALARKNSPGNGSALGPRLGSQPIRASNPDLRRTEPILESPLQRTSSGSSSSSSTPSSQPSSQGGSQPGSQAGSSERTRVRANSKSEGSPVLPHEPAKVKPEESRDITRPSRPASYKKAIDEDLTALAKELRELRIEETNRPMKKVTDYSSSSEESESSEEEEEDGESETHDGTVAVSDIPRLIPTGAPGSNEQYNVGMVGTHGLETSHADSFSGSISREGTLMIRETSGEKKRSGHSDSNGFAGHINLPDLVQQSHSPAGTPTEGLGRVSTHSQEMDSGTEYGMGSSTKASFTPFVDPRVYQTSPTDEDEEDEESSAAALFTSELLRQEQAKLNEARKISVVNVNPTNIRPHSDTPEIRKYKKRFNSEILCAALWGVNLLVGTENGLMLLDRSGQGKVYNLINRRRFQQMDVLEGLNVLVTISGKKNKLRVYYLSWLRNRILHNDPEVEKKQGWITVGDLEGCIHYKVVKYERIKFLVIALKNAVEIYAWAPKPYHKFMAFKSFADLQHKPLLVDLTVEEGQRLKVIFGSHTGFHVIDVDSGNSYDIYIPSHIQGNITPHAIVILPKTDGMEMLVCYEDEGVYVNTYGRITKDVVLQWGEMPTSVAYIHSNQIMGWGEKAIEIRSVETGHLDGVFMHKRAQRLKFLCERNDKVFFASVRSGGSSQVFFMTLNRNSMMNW

- % of remaining activity (relative to DMSO) (CK1a1; listed as Cmp 987): 17.57%
- remaining activity at 10 µM (CK1a1; [2]): 20.3%
- % of remaining activity (relative to DMSO) (ABL2/ARG; listed as Cmp 987): 83.33%
- remaining activity at 10 µM (ABL2/ARG; [2]): 88.1%
- % of remaining activity (relative to DMSO) (ALK5/TGFBR1; listed as Cmp 987): 37.80%
- remaining activity at 10 µM (ALK5/TGFBR1; [2]): 39.8%
- % of remaining activity (relative to DMSO) (CDK5/p25; listed as Cmp 987): 91.79%
- remaining activity at 10 µM (CDK5/p25; [2]): 98.2%
- % of remaining activity (relative to DMSO) (CK1e; listed as Cmp 987): 18.19%
- remaining activity at 10 µM (CK1e; [2]): 20.1%
- % of remaining activity (relative to DMSO) (CK1g1; listed as Cmp 987): 99.58%
- remaining activity at 10 µM (CK1g1; [2]): 104%
- % of remaining activity (relative to DMSO) (CK1g2; listed as Cmp 987): 78.23%
- remaining activity at 10 µM (CK1g2; [2]): 77.7%
- % of remaining activity (relative to DMSO) (CK1g3; listed as Cmp 987): 97.42%
- remaining activity at 10 µM (CK1g3; [2]): 101%
- % of remaining activity (relative to DMSO) (CLK2; listed as Cmp 987): 72.17%
- remaining activity at 10 µM (CLK2; [2]): 72.7%
- % of remaining activity (relative to DMSO) (EGFR; listed as Cmp 987): 34.51%
- remaining activity at 10 µM (EGFR; [2]): 32%
- % of remaining activity (relative to DMSO) (EPHA2; listed as Cmp 987): 50.05%
- remaining activity at 10 µM (EPHA2; [2]): 49.4%
- % of remaining activity (relative to DMSO) (FGFR1; listed as Cmp 987): 86.54%
- remaining activity at 10 µM (FGFR1; [2]): 78.7%
- % of remaining activity (relative to DMSO) (GSK3B; listed as Cmp 987): 68.98%
- remaining activity at 10 µM (GSK3B; [2]): 70%
- % of remaining activity (relative to DMSO) (JNK2; listed as Cmp 987): 63.80%
- remaining activity at 10 µM (JNK2; [2]): 60%
- % of remaining activity (relative to DMSO) (KDR/VEGFR2; listed as Cmp 987): 83.06%
- remaining activity at 10 µM (KDR/VEGFR2; [2]): 90.3%
- % of remaining activity (relative to DMSO) (LCK; listed as Cmp 987): 58.89%
- remaining activity at 10 µM (LCK; [2]): 63.9%
- % of remaining activity (relative to DMSO) (MSK1/RPS6KA5; listed as Cmp 987): 87.76%
- remaining activity at 10 µM (MSK1/RPS6KA5; [2]): 91.4%
- % of remaining activity (relative to DMSO) (P38a/MAPK14; listed as Cmp 987): 17.83^$ %
- remaining activity at 10 µM (P38a/MAPK14; [2]): 17.6%
- % of remaining activity (relative to DMSO) (PDK1/PDPK1; listed as Cmp 987): 98.31%
- remaining activity at 10 µM (PDK1/PDPK1; [2]): 95%
- % of remaining activity (relative to DMSO) (PIM3; listed as Cmp 987): 75.10%
- remaining activity at 10 µM (PIM3; [2]): 88.8%
- % of remaining activity (relative to DMSO) (PKA; listed as Cmp 987): 33.43%
- remaining activity at 10 µM (PKA; [2]): 36.9%
- % of remaining activity (relative to DMSO) (PKCb2; listed as Cmp 987): 66.13%
- remaining activity at 10 µM (PKCb2; [2]): 73%
- % of remaining activity (relative to DMSO) (RIPK2; listed as Cmp 987): 40.46%
- remaining activity at 10 µM (RIPK2; [2]): 36.3%
- % of remaining activity (relative to DMSO) (ROCK1; listed as Cmp 987): 92.49%
- remaining activity at 10 µM (ROCK1; [2]): 96.9%
- % of remaining activity (relative to DMSO) (TNIK; listed as Cmp 987): 69.49%
- remaining activity at 10 µM (TNIK; [2]): 68.5%
- % of remaining activity (relative to DMSO) (YES/YES1; listed as Cmp 987): 40.00%
- remaining activity at 10 µM (YES/YES1; [2]): 42.8%
- % of remaining activity (relative to DMSO) ([1]; CK1d, 10 μM compound, duplicate, listed as Cmp 987): 5.40%
- remaining activity at 10 µM ([1]; CK1d, 10 μM compound, duplicate, read-out: % of remaining activity (relative to DMSO)): 5.71%
- IC50 [1]: 0.31 µM
SMILES: NC(=O)c1c(N)c(C(=O)c2ccc(F)cc2)n2ccccc12 [Comparative Compound 987, 2-amino-3-[(4-fluorophenyl)carbonyl]indolizine-1-carboxamide]

- IC50 [1]: 0.113 µM
SMILES: O=C1Nc2ccc(I)cc2/C1=C/c1cc(Br)c(O)c(Br)c1 [GW5074]
